Structures can show the parent of a compound that is named as a salt.
Biological target: T1, human GPR120 (Homo sapiens, UniProt Q5NUL3)
T1 construct: expressed in transfected cells
T1 sequence (Q5NUL3 1-361): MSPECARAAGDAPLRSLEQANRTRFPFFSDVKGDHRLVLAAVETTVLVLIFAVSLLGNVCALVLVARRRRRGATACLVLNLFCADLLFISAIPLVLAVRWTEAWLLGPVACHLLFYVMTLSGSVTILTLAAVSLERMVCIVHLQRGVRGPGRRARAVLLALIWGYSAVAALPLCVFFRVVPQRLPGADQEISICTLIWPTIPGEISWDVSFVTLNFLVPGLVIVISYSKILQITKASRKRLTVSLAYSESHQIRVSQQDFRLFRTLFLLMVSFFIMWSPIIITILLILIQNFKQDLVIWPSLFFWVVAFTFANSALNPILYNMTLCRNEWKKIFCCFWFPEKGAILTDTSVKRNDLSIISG
Assay: Measurement of intracellular calcium concentration (FLIPR), GPR120 agonist action
Type: cell-based
Conditions: 10 μmol/l test compound, human GPR120 expression CHO cells, Fluo-4 AM; for activation at 10 µM: read-out: Agonistic activity at 10 μmol/l (%)
Description: Using Lipofectamine 2000 (Invitrogen), cDNA of GPR120 receptor was transfected into CHO/NFAT-BLA cells, and drug-resistant cells were isolated to obtain GPR120 stable expression strains. The GPR120-expressed CHO cells were cultured in DMEM/F12 medium containing 10% fetal bovine serum, 100 units/ml penicillin, 0.1 mg/ml streptomycin sulfate, 250 μg/ml Zeocin, 500 μg/mL Geneticin and 15 mM HEPES. On the day before the measurement day, 4 μM Fluo-4 AM (fluorescence calcium indicator reagent) was incubated to be introduced into the human GPR120 expression CHO cells plated at 20000 cells per well of a 96-well black plate (ViewPlate; Packard) in the presence of 2.5 mM probenecid in a CO2 incubator for 1 hour. To the cells was added the test compound diluted with HBSS solution containing 20 mM HEPES and 2.5 mM probenecid. Variations in the intracellular calcium concentration were measured by Fluorescence Imaging Plate Reader (FLIPR; Molecular Devices) to examine the agonist action, and EC50 values were calculated.

Agonistic activity at 10 μmol/l (%) | activation at 10 µM | Compound
98% |  | 5-(4-(2-(3-ethylphenyl)-1-methylethoxy)phenyl)isoxazol-3-ol [Example 35]
84% |  | 5-(4-(2-(3-isopropoxyphenyl)propoxy)phenyl)-isoxazol-3-ol [Example 33]
101% |  | 5-(4-(2-(4-methylphenoxy)propyl)phenyl)isoxazol-3-ol [Example 14]
91% |  | 5-{4-[(2,2-difluoro-2-{3-[(1-methylethyl)oxy]phenyl}ethyl)oxy]phenyl}isoxazol-3-ol [Example 30]
93% |  | 5-{4-[(2-fluoro-2-{3-[(1-methylethyl)oxy]phenyl}ethyl)oxy]phenyl}isoxazol-3-ol [Example 31]
 | 104% | CC(C)Oc1cccc(CC(C)Oc2ccc(-c3cc(O)no3)cc2)c1 (centres unmarked) [Example 1, 5-(4-(2-(3-isopropoxyphenyl)-1-methylethoxy)phenyl)isoxazol-3-ol]
110% |  | COc1cccc(C(F)COc2ccc(-c3cc(O)no3)cc2)c1 (centres unmarked) [Example 2, 5-(4-(2-fluoro-2-(3-methoxyphenyl)ethoxy)phenyl)isoxazol-3-61]
 | 105% | COc1cccc(C(F)(F)COc2ccc(-c3cc(O)no3)cc2)c1 [Example 3, 5-(4-(2,2-difluoro-2-(3-methoxyphenyl)ethoxy)phenyl)isoxazol-3-ol]
 | 98% | CC(C)Oc1cccc(C(C)COc2ccc(-c3cc(O)no3)cc2)c1 (centres unmarked) [Example 4, 5-(4-(2-(3-isopropoxyphenyl)propoxy)phenyl)-isoxazol-3-ol]
 | 94% | CC(C)Oc1cccc(C(C)(C)COc2ccc(-c3cc(O)no3)cc2)c1 [Example 5, 5-(4-(2-methyl-2-(3-isopropoxyphenyl)propoxy)phenyl)-isoxazol-3-ol]
 | 98% | CC(C)Oc1cccc(CC(C)Oc2ccc(-c3cc(O)no3)cn2)c1 (centres unmarked) [Example 7, 5-(6-(2-(3-isopropoxyphenyl)-1-methylethoxy)pyridin-3-yl)isoxazol-3-ol]
 | 96% | CC(C)Oc1cccc(CC(C)Oc2ccc(-c3cc(O)no3)nc2)c1 (centres unmarked) [Example 8, 5-(5-(2-(3-isopropoxyphenyl)-1-methylethoxy)pyridin-2-yl)isoxazol-3-ol]
 | 100% | CC(C)Oc1cccc(CN(C)Cc2ccc(-c3cc(O)no3)cc2)c1 [Example 9, 5-(4-(((3-isopropoxybenzyl)(methyl)amino)methyl)phenyl)isoxazol-3-ol]
 | 93% | CC(Cc1ccc(-c2cc(O)no2)cc1)Oc1ccccc1 (centres unmarked) [Example 10, 5-(4-(2-phenoxypropyl)phenyl)isoxazol-3-ol]
91% |  | Cc1cccc(OC(C)Cc2ccc(-c3cc(O)no3)cc2)c1 (centres unmarked) [Example 11, 5-(4-(2-(3-methylphenoxy)propyl)phenyl)isoxazol-3-01]
 | 95% | COc1cccc(OC(C)Cc2ccc(-c3cc(O)no3)cc2)c1 (centres unmarked) [Example 12, 5-(4-(2-(3-methoxyphenoxy)propyl)phenyl)isoxazol-3-ol]
 | 93% | CC(Cc1ccc(-c2cc(O)no2)cc1)Oc1cccc(C(F)(F)F)c1 (centres unmarked) [Example 13, 5-(4-(2-(3-(trifluoromethyl)phenoxy)propyl)phenyl)isoxazol-3-ol]
 | 97% | COc1cc(OC)cc(OC(C)Cc2ccc(-c3cc(O)no3)cc2)c1 (centres unmarked) [Example 15, 5-(4-(2-(3,5-dimethoxyphenoxy)propyl)phenyl)isoxazol-3-ol]
96% |  | CC(Cc1ccc(-c2cc(O)no2)cc1)Oc1ccc(Cl)cc1 (centres unmarked) [Example 16, 5-(4-(2-(4-chlorophenoxy)propyl)phenyl)isoxazol-3-01]
97% |  | CC(Cc1ccc(-c2cc(O)no2)cc1)Oc1ccc(Cl)cc1F (centres unmarked) [Example 17, 5-(4-(2-(4-chloro-2-fluorophenoxy)propyl)phenyl)isoxazol-3-01]

Agonistic activity at 10 μmol/l (%) | activation at 10 µM | Compound
97% |  | CC(Cc1ccc(-c2cc(O)no2)cc1)Oc1ccc(Cl)cc1Cl (centres unmarked) [Example 18, 5-(4-(2-(2,4-dichlorophenoxy)propyl)phenyl)isoxazol-3-01]
96% |  | CC(Cc1ccc(-c2cc(O)no2)cc1)Oc1cccc(OC(F)(F)F)c1 (centres unmarked) [Example 19]
94% |  | CC(C)Oc1cccc(C[C@@H](C)Oc2ccc(-c3cc(O)no3)cc2)c1 [Example 20]
 | 95% | CC(C)Oc1cccc(C[C@H](C)Oc2ccc(-c3cc(O)no3)cc2)c1 [Example 21, 5-{4-[((1S)-1-methyl-2-{3-[(1-methylethyl)oxy]phenyl}ethyl)oxy]phenyl}isoxazol-3-ol]
93% |  | C[C@H](Cc1cccc(OC2CC2)c1)Oc1ccc(-c2cc(O)no2)cc1 [Example 22, 5-[4-({(1R)-1-methyl-2-[3-(cyclopropyloxy)phenyl]-1-methylethyl]oxy)phenyl}isoxazol-3-ol]
 | 101% | C[C@H](Cc1cccc(OC(F)(F)F)c1)Oc1ccc(-c2cc(O)no2)cc1 [Example 23, 5-{4-[((1R)-1-methyl-2-{3-[(trifluoromethyl)oxy]phenyl}ethyl)oxy]phenyl}isoxazol-3-ol]
 | 86% | C[C@H](Cc1ccc(OC(F)(F)F)cc1)Oc1ccc(-c2cc(O)no2)cc1 [Example 24, 5-{4-[((1R)-1-methyl-2-{4-[(trifluoromethyl)oxy]phenyl}ethyl)oxy]phenyl}isoxazol-3-ol]
 | 91% | C[C@H](Cc1ccc(Cl)c(OC(F)(F)F)c1)Oc1ccc(-c2cc(O)no2)cc1 [Example 25, 5-{4-[((1R)-2-{4-chloro-3-[(trifluoromethyl)oxy]phenyl}-1-methylethyl)oxy]phenyl}isoxazol-3-ol]
 | 100% | CC(C)Oc1cccc(C[C@@H](C)Oc2ccc(-c3cc(O)no3)cn2)c1 [Example 26, 5-{6-[((1R)-1-methyl-2-{3-[(1-methylethyl)oxy]phenyl}ethyl)oxy]pyridin-3-yl}isoxazol-3-ol Hydrochloride]
 | 99% | CC(C)Oc1cccc(C[C@H](C)Oc2ccc(-c3cc(O)no3)cn2)c1 [Example 27, 5-{6-[((1S)-1-methyl-2-{3-[(1-methylethyl)oxy]phenyl}ethyl)oxy]pyridin-3-yl}isoxazol-3-ol Hydrochloride]
 | 97% | CC(C)Oc1cccc(C[C@@H](C)Oc2ccc(-c3cc(O)no3)c(F)c2)c1 [Example 28, 5-{2-fluoro-4-[((1R)-1-methyl-2-{3-[(1-methylethyl)oxy]phenyl}ethyl)oxy]phenyl}isoxazol-3-ol]
 | 102% | CC(C)Oc1cccc(C(F)COc2ccc(-c3cc(O)no3)cc2)c1 (centres unmarked) [Example 29, 5-{4-[(2-fluoro-2-{3-[(1-methylethyl)oxy]phenyl}ethyl)oxy]phenyl}isoxazol-3-ol]
91% |  | CC(C)Oc1cccc(C[C@@H](C)Oc2ncc(-c3cc(O)no3)cn2)c1 [Example 32, 5-{2-[((1R)-1-methyl-2-{3-[(1-methylethyl)oxy]phenyl}ethyl)oxy]pyrimidin-5-yl}isoxazol-3-01]
 | 90% | CCC(Cc1cccc(OC(C)C)c1)Oc1ccc(-c2cc(O)no2)cc1 (centres unmarked) [Example 34, 5-(4-(2-(3-isopropoxyphenyl)-1-ethylethoxy)phenyl)isoxazol-3-ol]
 | 100% | CC(C)Oc1cccc(C(F)(F)COc2ccc(-c3cc(O)no3)cc2)c1 [Example 36, 5-(4-(2,2-difluoro-2-(3-isopropoxyphenyl)ethoxy)phenyl)isoxazol-3-ol]
 | 97% | CCOc1cccc(CC(C)Oc2ccc(-c3cc(O)no3)c(F)c2)c1 (centres unmarked) [Example 37, 5-{2-fluoro-4-[2-(3-ethoxyphenyl)-1-methylethoxy]phenyl}isoxazol-3-ol]
 | 92% | CC(C)Oc1cccc(C(C)(C)COc2ccc(-c3cc(O)no3)c(F)c2)c1 [Example 38, 5-{2-fluoro-4-[2-(3-isopropoxyphenyl)-2-methylpropoxy]phenyl}isoxazol-3-ol]
90% |  | CC(C)Oc1ccccc1C(C)COc1ccc(-c2cc(O)no2)c(F)c1 (centres unmarked) [Example 39]
 | 95% | CC(C)Oc1cccc(C(C)COc2ccc(-c3cc(O)no3)cn2)c1 (centres unmarked) [Example 40, 5-(6-(2-(3-isopropoxyphenyl)propoxy)pyridin-3-yl)isoxazol-3-ol]
 | 87% | CC(C)Oc1cccc(C(C)N(C)Cc2ccc(-c3cc(O)no3)cc2)c1 (centres unmarked) [Example 41, 5-(4-{[[1-(3-isopropoxyphenyl)ethyl](methyl)amino]methyl}phenyl)isoxazol-3-ol]

Compound | Agonistic activity at 10 μmol/l (%) | activation at 10 µM
CC(C)Oc1cccc(CC(C)Oc2ccc(-c3cc(O)no3)c(F)c2)c1 (centres unmarked) [Example 6, 5-{2-fluoro-4-[2-(3-isopropoxyphenyl)-1-methylethoxy]phenyl}isoxazol-3-01] | 98% | 
